The text below walks through data of US20240199676A1, “ANTIVIRAL COMPOUNDS AND METHODS OF MAKING AND USING THE SAME” (Gilead Sciences, Inc., priority 2022, published 2024).

Series [1] deals with Human Rhinovirus 1B (HRV1B) in H1-HeLa cells. The series can be described thus: H1-HeLa HRV-CTG 384-well Assay (Ex. Y), HRV1B. The following applies: Rhinovirus A, 96 h, read-out: EC50 H1-HeLa_HRV1B_HRV-CTG 384-well Assay (per Ex. Y). The series is classed as cell-based. From the text: (§1) Example Y: H1-HeLa HRV-CTG 384-well Assay
(§2) H1-Hela cell line (ATCC, Manassas, VA, Cat #CRL-1958) was maintained in Dulbecco's […] (DMEM) (Corning, New York, NY, Cat #15-018CM) supplemented with 10% fetal bovine serum (FBS) (Hyclone, Logan, UT, Cat #SH30071-03), and 1× Penicillin-Streptomycin-L-Glutamine (Corning, New York, NY, Cat #30-009-CI). Cells were passaged 2 times per week to maintain sub-confluent densities and were used for experiments at passage 5-30. The Human Rhinovirus 1B (HRV1B) (ATCC, Manassas, VA, Cat #VR-1645) , Human Rhinovirus 14 (HRV14) (ATCC, Manassas, VA, Cat #VR-284), and Human Rhinovirus 16 (HRV16) (ATCC, Manassas, VA, Cat #BR-283) was obtained through ATCC. Viral infection was monitored by determining viability of H1-HeLa cells as described below.
(§3) Test molecules are prepared in 100% DMSO in 384-well polypropylene plates (Greiner, Monroe, NC, Cat #784201) with 8 compounds per plate in grouped replicates of 4 at 10 serially diluted concentrations (1:3). The serially diluted compounds were transferred to low dead volume Echo plates (Labcyte, Sunnyvale, CA, Cat #LP-0200).
(§4) The test compounds were spotted to 384-well assay plates (Greiner, Monroe, NC, Cat#781091) at 200 nL per well using an Echo acoustic dispenser (Labcyte, Sunnyvale, CA). H1-HeLa cells were harvested and suspended in DMEM (supplemented with 2% FBS and 1× Penicillin-Streptomycin-L-Glutamine) and seeded to the pre-spotted assay plates at 5,000 cells per well in 30 μL. HRV1B, HRV14, and HRV16 was diluted in DMEM (supplemented with 2% FBS and 1× Penicillin-Streptomycin-L-Glutamine) at 97.1 million Infectious Units (IU) per mL, 151 million IU per mL and 221 million IU per mL respectively. 10 μL of virus per well was added to the assay plates containing cells and compounds, for an MOI of 0.5, 1.0, and 0.25 respectively. The assay plates were incubated for 4 days at 37° C. and 5% CO2. At the end of incubation, Celltiter-Glo (Promega, Madison, WI, Cat #(Ga7573) was prepared. The assay plates and Celltiter-Glo reagent were equilibrated to room temperature for at least 15 minutes. 40 μL per well of Celltiter-Glo reagent was added and the plates were incubated at room temperature for 15 minutes before reading the luminescence signal on an EnVision multimode plate reader (Perkin Elmer, Waltham, MA). Rupintrivir was used as positive control and DMSO was used as negative control. Values were normalized to the positive and negative controls (as 0% and 100% replication, respectively) and data was fitted using non-linear regression analysis by Gilead's dose response tool. The EC50 value for each compound was defined as the concentration reducing viral replication by 50%.

Series [2] has as its system Human Rhinovirus 14 (HRV14) in H1-HeLa cells. The series can be described thus: H1-HeLa HRV-CTG 384-well Assay (Ex. Y), HRV14. The series is classed as cell-based. The following applies: Rhinovirus B, 96 h, read-out: EC50 H1-HeLa_HRV14_HRV-CTG 384-well Assay (per Ex Y).
Text: as §1, §2, §3, §4

The nature of series [3]: GI S9 stability (Ex. Z), rat intestinal S9. The series is classed as in vitro ADME. The following applies: rat intestinal S9, 1.0 mg/mL protein, 2 μM substrate, pH 7.4, read-out: GIS9 Rat T½ (per Ex. Z). As for the experimental part: (§5) Example Z: GI S9 stability data:
(§6) Stock solutions of test compounds in dimethyl sulfoxide (DMSO) having a final concentration of 10 mM were prepared and used in all experiments. Sekisui XenoTech (Kansas City, KS) provided pooled intestinal S9 fractions. All other chemicals were purchased from Sigma-Aldrich (St. Louis, MO) or VWR (West Chester, PA). Internal Standard/Quench (IS/Q) used to stop reactions was 100 nM labetalol in (by volume) methanol (10%) and acetonitrile (90%).
(§7) Stability in Intestinal S9 Fractions: Duplicate aliquots of test compound or positive control substrate were added to S9 stock diluted with phosphate buffered saline (137 mM NaCl, 2.7 mM KCl, 10 mM phosphate buffer), pH 7.4, to obtain a protein concentration of 1.0 mg/mL. The metabolic reactions were initiated by the addition of the substrates to the S9 reaction mixture to a final concentration of 2 μM. At 0, 10, 20, 30, 60 and 120 min, 25 μL aliquots of the reaction mixture were transferred to plates containing 225 μl of IS/Q solution. After quenching, the plates were centrifuged at 3000×g for 30 minutes. 150 μL aliquots of each supernatant were dried down then reconstituted with 300 μL water. Aliquots (10 μL) of the prepared samples were analyzed on a Thermo Q-Exactive mass spectrometer as described below.
(§8) Liquid Chromatography—Mass Spectrometry: Quantification of test compounds and control substrate was performed by analyte/internal standard peak area ratio (PAR) values measured on a Thermo Q-Exactive mass spectrometer coupled to a Dionex UltiMate 3000 HPLC with a Leap Technologies HTC PAL autosampler. The column used for analysis was a Waters Acquity BEH C18 (1.7 μm particle size, 2.1×50 mm). Mobile phase A consisted of 0.1% (v/v) formic acid in water. Mobile phase B consisted of 0.1% (v/v) formic acid in acetonitrile. Elution of analytes was achieved by a series of linear gradients varying the proportions of A and B. The mass spectrometer was calibrated on a weekly basis and mass tolerance of 5 ppm was used.
(§9) Metabolic stabilities in S9 fractions were determined by measuring the rates of disappearance of test compound and positive control substrate.
(§10) Data (% of substrate remaining) were plotted on a semi-log scale and fitted using an exponential decline model:
(§11) Where Ct—% of substrate remaining at time=t; C0—% of substrate remaining at time=0; t—time; T½—half-life The Half-life (T½) is determined by the following equation: […]
(§12) Assuming a first-order reaction, the slope (k) is extrapolated from the aforementioned plotted data.

A short description of series [4]: GI S9 stability (Ex. Z), human intestinal S9. The series is classed as in vitro ADME. The settings on record: human intestinal S9, 1.0 mg/mL protein, 2 μM substrate, pH 7.4, read-out: GIS9 Human T½ (per Ex. Z). As for the experimental part:
as §5, §6, §7, §8, §9, §10, §11, §12

Where [5] appears, read: H1-HeLa cells, HRV1B MOI 0.5, 4 days, Celltiter-Glo.
The mark [6] stands for this setting: H1-HeLa cells, HRV14 MOI 1.0, 4 days, Celltiter-Glo.

Like-named read-outs stand apart in the source and are kept apart here.

For orientation: EC50 means the concentration giving half of the maximal effect. Take `CC(=O)OC[C@@]1(C#N)O[C@@H](c2ccc3c(N)ncnn23)[C@H](O)[C@@H]1O` [Compound 4, ((2R,3S,4R,5S)-5-(4-aminopyrrolo[2,1-f][1,2,4]triazin-7-yl)-2-cyano-3,4-dihydroxytetrahydrofuran-2-yl)methyl acetate]: the 50% effective concentration (EC50) in series [1] (setting [5]) stood at 6.38 µM; in series [2] (setting [6]), 4.61 µM. The half-life at 2 μM in series [3] (pooled intestinal S9 fractions) came to 9 min; in series [4] (pooled intestinal S9 fractions), 23 min.

For `CC1(CC(=O)OC[C@@]2(C#N)O[C@@H](c3ccc4c(N)ncnn34)[C@H](O)[C@@H]2O)CCC1` [Compound 33, ((2R,3S,4R,5S)-5-(4-aminopyrrolo[2,1-f][1,2,4]triazin-7-yl)-2-cyano-3,4-dihydroxytetrahydrofuran-2-yl)methyl 2-(1-methylcyclobutyl)acetate], the EC50 in series [1] (setting [5]) came out at 35.1 µM; in series [2] (setting [6]) it was 20.8 µM. In addition, the values for the half-life at 2 μM in series [3] (pooled intestinal S9 fractions) and in series [4] (pooled intestinal S9 fractions) were 31 min and 154 min, respectively.

`N#C[C@]1(COC(=O)C2CC2)O[C@@H](c2ccc3c(N)ncnn23)[C@H](O)[C@@H]1O` [Compound 7, ((2R,3S,4R,5S)-5-(4-aminopyrrolo[2,1-f][1,2,4]triazin-7-yl)-2-cyano-3,4-dihydroxytetrahydrofuran-2-yl)methyl cyclopropanecarboxylate]: the EC50 was determined as 11.4 µM in series [1] (setting [5]) and 27.1 µM in series [2] (setting [6]). The results for the half-life at 2 μM in series [3] (pooled intestinal S9 fractions) and in series [4] (pooled intestinal S9 fractions) were 26 min and 292 min, respectively.

For the molecule `CC(C)(C)CCC(=O)OC[C@@]1(C#N)O[C@@H](c2ccc3c(N)ncnn23)[C@H](O)[C@@H]1O` [Compound 36, ((2R,3S,4R,5S)-5-(4-aminopyrrolo[2,1-f][1,2,4]triazin-7-yl)-2-cyano-3,4-dihydroxytetrahydrofuran-2-yl)methyl 4,4-dimethylpentanoate], the figures for the EC50 in series [1] (setting [5]) and in series [2] (setting [6]) were 3.1 µM and 6.51 µM, respectively. For the same molecule, the half-life at 2 μM in series [3] (pooled intestinal S9 fractions) is 3 min; in series [4] (pooled intestinal S9 fractions) it was 11 min.

Consider `CC(C)C(=O)OC[C@@]1(C#N)O[C@@H](c2ccc3c(N)ncnn23)[C@H](O)[C@@H]1O` [Compound 1, ((2R,3S,4R,5S)-5-(4-aminopyrrolo[2,1-f][1,2,4]triazin-7-yl)-2-cyano-3,4-dihydroxytetrahydrofuran-2-yl)methyl isobutyrate], for which the EC50 was determined as 3.05 µM in series [1] (setting [5]) and 5.13 µM in series [2] (setting [6]). The results for the half-life at 2 μM in series [3] (pooled intestinal S9 fractions) and in series [4] (pooled intestinal S9 fractions) were 11 min and 38 min, respectively.

`N#C[C@]1(COC(=O)c2ccccc2)O[C@@H](c2ccc3c(N)ncnn23)[C@H](O)[C@@H]1O` [Compound 2, ((2R,3S,4R,5S)-5-(4-aminopyrrolo[2,1-f][1,2,4]triazin-7-yl)-2-cyano-3,4-dihydroxytetrahydrofuran-2-yl)methyl benzoate]: the EC50 in series [1] (setting [5]) was determined as 9.6 µM; in series [2] (setting [6]) it was 23.9 µM. The half-life at 2 μM in series [3] (pooled intestinal S9 fractions) stood at 8 min; in series [4] (pooled intestinal S9 fractions), 27 min.

With `CC(C)[C@H](N)C(=O)OC[C@@]1(C#N)O[C@@H](c2ccc3c(N)ncnn23)[C@H](O)[C@@H]1O` [Compound 12, ((2R,3S,4R,5S)-5-(4-aminopyrrolo[2,1-f][1,2,4]triazin-7-yl)-2-cyano-3,4-dihydroxytetrahydrofuran-2-yl)methyl L-valinate], the EC50 in series [1] (setting [5]) is 6.5 µM; in series [2] (setting [6]) it was 6 µM. Also, the half-life at 2 μM in series [3] (pooled intestinal S9 fractions) is 9 min; in series [4] (pooled intestinal S9 fractions), 2 min.

Turning to `CC(=O)OC[C@@]1(C#N)O[C@@H](c2ccc3c(N)ncnn23)[C@H](OC(C)=O)[C@@H]1OC(C)=O` [Compound 28, (2R,3S,4S,5S)-2-(acetoxymethyl)-5-(4-aminopyrrolo[2,1-f][1,2,4]triazin-7-yl)-2-cyanotetrahydrofuran-3,4-diyl diacetate], the EC50 is 9.45 µM in series [1] (setting [5]) and 19.8 µM in series [2] (setting [6]). The half-life at 2 μM in series [3] (pooled intestinal S9 fractions) and in series [4] (pooled intestinal S9 fractions) was 5 min in each case.

For `CC(C)C(=O)OC[C@@]1(C#N)O[C@@H](c2ccc3c(N)ncnn23)[C@H](OC(=O)C(C)C)[C@@H]1OC(=O)C(C)C` [Compound 20, (2R,3S,4S,5S)-5-(4-aminopyrrolo[2,1-f][1,2,4]triazin-7-yl)-2-cyano-2-((isobutyryloxy)methyl)tetrahydrofuran-3,4-diyl bis(2-methylpropanoate)], the results for the 50% effective concentration (EC50) in series [1] (setting [5]) and in series [2] (setting [6]) were 9.63 µM and 12.8 µM, respectively. The half-life at 2 μM is 2 min in series [3] (pooled intestinal S9 fractions) and 3 min in series [4] (pooled intestinal S9 fractions).

Regarding `N#C[C@]1(COC(=O)CC2CCC2)O[C@@H](c2ccc3c(N)ncnn23)[C@H](O)[C@@H]1O` [Compound 16, ((2R,3S,4R,5S)-5-(4-aminopyrrolo[2,1-f][1,2,4]triazin-7-yl)-2-cyano-3,4-dihydroxytetrahydrofuran-2-yl)methyl 2-cyclobutylacetate], the figures for the concentration giving a half-maximal response (EC50) in series [1] (setting [5]) and in series [2] (setting [6]) were 3.14 µM and 6.99 µM, respectively. Besides, the half-life at 2 μM worked out at 4 min in series [3] (pooled intestinal S9 fractions) and 14 min in series [4] (pooled intestinal S9 fractions).

As for `N#C[C@]1(COC(=O)Cc2ccccc2)O[C@@H](c2ccc3c(N)ncnn23)[C@H](O)[C@@H]1O` [Compound 38, ((2R,3S,4R,5S)-5-(4-aminopyrrolo[2,1-f][1,2,4]triazin-7-yl)-2-cyano-3,4-dihydroxytetrahydrofuran-2-yl)methyl 2-phenylacetate], the concentration for a half-maximal effect (EC50) was determined as 3.12 µM in series [1] (HRV1B, H1-HeLa) and 6.25 µM in series [2] (HRV14, H1-HeLa). Moreover, the half-life at 2 μM in series [3] is 12 min; in series [4], 28 min.
